Biological target: recombinant mTOR (Homo sapiens (Human), UniProt P42345)
Test: mTOR kinase assay (33P incorporation into 4EBP1)
Type: biochemical
Conditions: compound at 10 μM, 10 μM ATP
Procedure: The activity of the compound against mTOR was examined by measuring the incorporation of ^33P from [γ-^33P]-ATP into 4EBP1. His-tagged, recombinant human 4EBP1 was expressed in E. coli, purified by nickel-nitrilotriacetic acid (Ni-NTA) resins, and stored at −80° C. Phosphorylation of 4EBP1 by mTOR was assayed in the presence or absence of the compound and performed in a final volume of 25 μl reaction buffer containing 300 ng 4EBP1, 50 ng recombinant mTOR (Invitrogen), 50 mM HEPES (pH 7.5), 1 mM EGTA, 0.01% Polysorbate 20, 10 mM MnCl2, 2.5 mM DTT, 10 μM ATP, and 0.5 μCi [γ-33P]-ATP (PerkinElmir) for 30 min at 30° C. The reactions were terminated by adding 3% phosphoric acid. The ^33P labeled 4EBP1 was transferred onto UniFilter-96 GF/B plate (PerkinElmer) and quantified by Top Count Microplate Scintillation Counter (PerkinElmer). For primary screening of kinase activity inhibition, each test compound was evaluated at […] in duplicate. […] The IC50 values of the compounds were determined after carrying out assays at eight serially diluted concentrations of each compound in duplicate. The results were analyzed using linear regression software (GraphPad Prism 5; GraphPad Software Inc.).
IC50 value is defined as the concentration of the test compound which achieves a half-maximal inhibition of the kinase activity.

Sequence of recombinant mTOR (P42345 1360-2549): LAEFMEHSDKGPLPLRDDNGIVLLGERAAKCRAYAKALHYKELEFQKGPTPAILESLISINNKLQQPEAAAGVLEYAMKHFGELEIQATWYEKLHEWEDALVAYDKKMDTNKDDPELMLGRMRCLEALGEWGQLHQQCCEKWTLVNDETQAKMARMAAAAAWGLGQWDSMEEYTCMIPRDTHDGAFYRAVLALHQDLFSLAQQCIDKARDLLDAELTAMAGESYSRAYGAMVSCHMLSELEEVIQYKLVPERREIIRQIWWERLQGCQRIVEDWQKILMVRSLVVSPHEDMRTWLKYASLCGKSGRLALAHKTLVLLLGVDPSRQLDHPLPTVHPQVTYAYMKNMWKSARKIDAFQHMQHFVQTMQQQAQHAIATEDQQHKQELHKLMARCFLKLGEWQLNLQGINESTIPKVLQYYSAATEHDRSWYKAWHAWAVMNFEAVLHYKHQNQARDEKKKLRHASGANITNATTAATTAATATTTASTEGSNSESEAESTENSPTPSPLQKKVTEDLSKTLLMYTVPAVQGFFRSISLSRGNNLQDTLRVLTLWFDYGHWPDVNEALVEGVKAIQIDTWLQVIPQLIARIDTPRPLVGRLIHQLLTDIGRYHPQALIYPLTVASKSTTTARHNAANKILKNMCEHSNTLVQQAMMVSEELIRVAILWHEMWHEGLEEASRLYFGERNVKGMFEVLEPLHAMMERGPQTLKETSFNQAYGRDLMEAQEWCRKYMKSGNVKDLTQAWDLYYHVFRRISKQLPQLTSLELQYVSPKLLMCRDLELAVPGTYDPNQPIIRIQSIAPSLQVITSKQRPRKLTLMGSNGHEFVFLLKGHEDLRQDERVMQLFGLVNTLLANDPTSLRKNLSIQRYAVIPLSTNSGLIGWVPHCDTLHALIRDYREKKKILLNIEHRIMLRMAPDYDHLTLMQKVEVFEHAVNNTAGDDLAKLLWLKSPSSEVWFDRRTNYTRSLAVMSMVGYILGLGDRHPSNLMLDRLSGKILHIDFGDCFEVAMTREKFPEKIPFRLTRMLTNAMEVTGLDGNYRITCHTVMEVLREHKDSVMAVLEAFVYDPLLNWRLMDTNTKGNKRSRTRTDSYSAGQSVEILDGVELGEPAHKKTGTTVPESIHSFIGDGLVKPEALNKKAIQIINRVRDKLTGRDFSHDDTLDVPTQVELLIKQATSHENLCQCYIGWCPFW

inhibition at 10 µM | SMILES
92% | CCOC(=O)c1nc(-c2ccc(Nc3nc4ccccc4[nH]3)cc2)nc(N2CCOCC2)c1OCC [MTR-0243, 2-[4-(1H-Benzoimidazol-2-ylamino)-phenyl]-5-ethoxy-6-morpholin-4-yl-pyrimidine-4-carboxylic acid ethyl ester]
94% | COc1cnc(-c2ccc(NC(=O)Nc3ccc(Br)nc3)cc2)nc1N1CCOCC1 [MTR-0352, 1-(6-Bromo-pyridin-3-yl)-3-[4-(5-methoxy-4-morpholin-4-yl-pyrimidin-2-yl)-phenyl]-urea]
86% | CSc1cnc(-c2ccc(NC(=O)Nc3ccc(N4CCN(S(C)(=O)=O)CC4)cc3)cc2)nc1N1CCOCC1 [MTR-0430, 1-[4-(4-Methanesulfonyl-piperazin-1-yl)-phenyl]-3-[4-(5-methylsulfanyl-4-morpholin-4-yl-pyrimidin-2-yl)-phenyl]-urea]
84% | CSc1c(Cl)nc(-c2ccc(NC(=O)Nc3nccs3)cc2)nc1N1CCOCC1 [MTR-0200, 1-[4-(4-Chloro-5-methylsulfanyl-6-morpholin-4-yl-pyrimidin-2-yl)-phenyl]-3-thiazol-2-yl-urea]
96% | CNC(=O)Nc1ccc(-c2ncc(SC)c(N3CCOCC3)n2)cc1 [MTR-0210, 1-Methyl-3-[4-(5-methylsulfanyl-4-morpholin-4-yl-pyrimidin-2-yl)-phenyl]-urea]
85% | CCOC(=O)c1nc(-c2ccc(NC(=O)NC(C)C)cc2)nc(N2CCOCC2)c1OCC [MTR-0366, 5-Ethoxy-2-[4-(3-isopropyl-ureido)-phenyl]-6-morpholin-4-yl-pyrimidine-4-carboxylic acid ethyl ester]
94% | COc1cnc(-c2ccc(NC(=O)Nc3ccc(N4CCN(C)CC4)nc3)cc2)nc1N1CCOCC1 [MTR-0338, 1-[4-(5-Methoxy-4-morpholin-4-yl-pyrimidin-2-yl)-phenyl]-3-[6-(4-methyl-piperazin-1-yl)-pyridin-3-yl]-urea]
100% | CSc1c(-c2ccncc2)nc(-c2ccc(NC(=O)Nc3ccon3)cc2)nc1N1CCOCC1 [MTR-0485, 1-Isoxazol-3-yl-3-[4-(5-methylsulfanyl-4-morpholin-4-yl-6-pyridin-4-yl-pyrimidin-2-yl)-phenyl]-urea]
89% | COc1cnc(-c2ccc(NC(=S)Nc3ccc(N4CCOCC4=O)cc3)cc2)nc1N1CCOCC1 [MTR-0335, 1-[4-(5-Methoxy-4-morpholin-4-yl-pyrimidin-2-yl)-phenyl]-3-[4-(3-oxo-morpholin-4-yl)-phenyl]-thiourea]
97% | CCOC(=O)c1nc(-c2ccc(NC(=O)Nc3ccc(N4CCN(C)CC4)nc3)cc2)nc(N2CCOCC2)c1OCC [MTR-0275, 5-Ethoxy-2-(4-{3-[6-(4-methyl-piperazin-1-yl)-pyridin-3-yl]-ureido}-phenyl)-6-morpholin-4-yl-pyrimidine-4-carboxylic acid ethyl ester]
93% | CSc1c(Cl)nc(-c2ccc(NC(=O)Nc3ccc(C(N)=O)cc3)cc2F)nc1N1CCOCC1 [MTR-0411, 4-{3-[4-(4-Chloro-5-methylsulfanyl-6-morpholin-4-yl-pyrimidin-2-yl)-3-fluoro-phenyl]-ureido}-benzamide]
84% | CSc1c(Cl)nc(-c2ccc(NC(=O)Nc3cccc(F)c3)cc2)nc1N1CCOCC1 [MTR-0137, 1-[4-(4-Chloro-5-methylsulfanyl-6-morpholin-4-yl-pyrimidin-2-yl)-phenyl]-3-(3-fluoro-phenyl)-urea]
99% | CCOc1c(-c2ccncc2)nc(-c2ccc(NC(=O)Nc3cccnc3)cc2)nc1N1CCOCC1 [MTR-0493, 1-[4-(5-Ethoxy-4-morpholin-4-yl-6-pyridin-4-yl-pyrimidin-2-yl)-phenyl]-3-pyridin-3-yl-urea]
82% | CSc1c(Cl)nc(-c2ccc(NC(=O)O)cc2)nc1N1CCOCC1 [MTR-0307, [4-(4-Chloro-5-methylsulfanyl-6-morpholin-4-yl-pyrimidin-2-yl)-phenyl]-carbamic acid]
81% | CSc1c(Cl)nc(-c2cnc(N)nc2)nc1N1CCOCC1 [MTR-0373, 6-Chloro-5-methylsulfanyl-4-morpholin-4-yl-[2,5′]bipyrimidinyl-2′-ylamine]
82% | CCOC(=O)c1nc(-c2ccc(NC(=O)Nc3cccc(NC(=O)C(F)(F)F)c3)cc2)nc(N2CCOCC2)c1OCC [MTR-0252, 5-Ethoxy-6-morpholin-4-yl-2-(4-{3-[3-(2,2,2-trifluoro-acetylamino)-phenyl]-ureido}-phenyl)-pyrimidine-4-carboxylic acid ethyl ester]
83% | CCOC(=O)c1nc(-c2ccc(NC(=O)Nc3cccc4[nH]ncc34)cc2)nc(N2CCOCC2)c1OCC [MTR-0297, 5-Ethoxy-2-{4-[3-(1H-indazol-4-yl)-ureido]-phenyl}-6-morpholin-4-yl-pyrimidine-4-carboxylic acid ethyl ester]

inhibition at 10 µM | SMILES
96% | CCOc1c(C(=O)N2CCN(C)CC2)nc(-c2ccc(NC(=O)Nc3ccccc3)cc2)nc1N1CCOCC1 [MTR-0186, 1-{4-[5-Ethoxy-4-(4-methyl-piperazine-1-carbonyl)-6-morpholin-4-yl-pyrimidin-2-yl]-phenyl}-3-phenyl-urea]
97% | CSc1c(Cl)nc(-c2ccc(NC(=O)Nc3ccc(N)cc3)cc2)nc1N1CCOCC1 [MTR-0329, 1-(4-Amino-phenyl)-3-[4-(4-chloro-5-methylsulfanyl-6-morpholin-4-yl-pyrimidin-2-yl)-phenyl]-urea]
95% | CCOc1c(-c2cccnc2)nc(-c2ccc(NC(=O)Nc3ccc(N4CCOCC4=O)cc3)cc2)nc1N1CCOCC1 [MTR-0496, 1-[4-(5-Ethoxy-4-morpholin-4-yl-6-pyridin-3-yl-pyrimidin-2-yl)-phenyl]-3-[4-(3-oxo-morpholin-4-yl)-phenyl]-urea]
93% | CSc1cnc(-c2ccc(NC(=O)Nc3ccc4c(c3)OCO4)cc2)nc1N1CCOCC1 [MTR-0317, 1-Benzo[1,3]dioxol-5-yl-3-[4-(5-methylsulfanyl-4-morpholin-4-yl-pyrimidin-2-yl)-phenyl]-urea]
83% | CSc1c(Cl)nc(-c2ccc(NC(=S)Nc3ccc(C(=O)O)cc3)cc2)nc1N1CCOCC1 [MTR-0293, 4-{3-[4-(4-Chloro-5-methylsulfanyl-6-morpholin-4-yl-pyrimidin-2-yl)-phenyl]-thioureido}-benzoic acid]
86% | CSc1c(Cl)nc(-c2ccc(O)cc2)nc1N1CCOCC1 [MTR-0098, 4-(4-Chloro-5-methylsulfanyl-6-morpholin-4-yl-pyrimidin-2-yl)-phenol]
82% | CSc1c(Cl)nc(-c2ccc(NC(N)=O)c(F)c2)nc1N1CCOCC1 [MTR-0356, [4-(4-Chloro-5-methylsulfanyl-6-morpholin-4-yl-pyrimidin-2-yl)-2-fluoro-phenyl]-urea]
81% | CCOc1c(CN2CCCCC2)nc(-c2ccc(NC(=O)Nc3ccccc3)cc2)nc1N1CCOCC1 [MTR-0193, 1-[4-(5-Ethoxy-4-morpholin-4-yl-6-piperidin-1-ylmethyl-pyrimidin-2-yl)-phenyl]-3-phenyl-urea]
92% | CSc1cnc(-c2ccc(NC(=O)Nc3ccc(OCCN(C)C)cc3)cc2)nc1N1CCOCC1 [MTR-0343, 1-[4-(2-Dimethylamino-ethoxy)-phenyl]-3-[4-(5-methylsulfanyl-4-morpholin-4-yl-pyrimidin-2-yl)-phenyl]-urea]
86% | CCOc1c(CN2CCN(C)CC2)nc(-c2ccc(NC(=O)Nc3ccccc3)cc2)nc1N1CCOCC1 [MTR-0172, 1-{4-[5-Ethoxy-4-(4-methyl-piperazin-1-ylmethyl)-6-morpholin-4-yl-pyrimidin-2-yl]-phenyl}-3-phenyl-urea]
89% | COc1cnc(-c2ccc(NC(=S)Nc3ccc(F)cc3)cc2)nc1N1CCOCC1
88% | COc1cnc(-c2ccc(NC(=O)Nc3ccc(N4CCOCC4=O)cc3)cc2)nc1-c1ccncc1 [MTR-0474, 1-[4-(5-Methoxy-4-pyridin-4-yl-pyrimidin-2-yl)-phenyl]-3-[4-(3-oxo-morpholin-4-yl)-phenyl]-urea]
81% | CCOC(=O)c1nc(-c2ccc(NC(=S)Nc3ccccc3)cc2)nc(N2CCOCC2)c1OCC [MTR-0102, 5-Ethoxy-6-morpholin-4-yl-2-[4-(3-phenyl-thioureido)-phenyl]-pyrimidine-4-carboxylic acid ethyl ester]
95% | CCOC(=O)c1nc(-c2ccc(NC(=O)Nc3ccc4[nH]c(=O)oc4c3)cc2)nc(N2CCOCC2)c1OCC [MTR-0423, 5-Ethoxy-6-morpholin-4-yl-2-{4-[3-(2-oxo-2,3-dihydro-benzooxazol-6-yl)-ureido]-phenyl}-pyrimidine-4-carboxylic acid ethyl ester]
82% | CSc1c(Cl)nc(-c2ccc(Nc3nc4ccccc4[nH]3)cc2)nc1N1CCOCC1 [MTR-0305, (1H-Benzoimidazol-2-yl)-[4-(4-chloro-5-methylsulfanyl-6-morpholin-4-yl-pyrimidin-2-yl)-phenyl]-amine]
84% | CSc1c(Cl)nc(-c2ccc(NC(=O)Nc3ccc(N4CCOCC4=O)cc3)cc2)nc1N1CCOCC1 [MTR-0213, 1-[4-(4-Chloro-5-methylsulfanyl-6-morpholin-4-yl-pyrimidin-2-yl)-phenyl]-3-[4-(3-oxo-morpholin-4-yl)-phenyl]-urea]
